By EC50 is commonly meant the concentration giving half of the maximal effect. What is called CC50 is the concentration at which the toxic effect on the cells reaches its halfway point. As a reminder, the AC50 is the concentration giving half of the maximal activity seen.

Series [1] relates to BJ. Put plainly: BJ-TERT-LT-ST fibroblast viability loss – cell-based, RAS-independent, luminescence, dose response (AID 1935).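 Further: BJ fibroblasts immortalized with TERT plus LT and ST oncogenes.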 Type of series: functional. The note with it: Homo sapiens.
The test system of series [2] is BJ. Kind of series: BJ-TERT fibroblast viability loss – cell-based, RAS-independent, luminescence, dose response (AID 1933). The series is classed as functional. The note with it: Homo sapiens.
Series [3] deals with BJ. Put plainly: cells. The following applies: Homo sapiens. Type of series: functional, cell-based.
Series [4] in a line: DRD fibroblast viability loss – cell-based, non-viral oncogenic, luminescence, dose response (AID 1934). Type of series: functional. The following applies: Homo sapiens.
For series [5], the system named is Vero. Kind of series: cells. Type of series: functional. The following applies: Chlorocebus sabaeus.
The subject of series [6] is Vero. Kind of series: cells. Type of series: functional, cell-based. The following applies: Chlorocebus sabaeus.
The nature of series [7]: Dd2 malaria parasite growth inhibition potency – SYBR Green, dry powder samples, dose response (AID 1159566).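 Further: potency for growth inhibition with lower SYBR green DNA signal.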 The series is classed as functional, cell-based.
Series [8] can be described thus: P. falciparum Dd2 growth inhibitors, dose response, SYBR Green, cherry-picked samples (AID 1159567). Type of series: functional, cell-based.
The nature of series [9]: growth inhibition of PfATP4-mutant resistant parasites – NITD609-resistant line, SYBR Green, dry powder, dose response (AID 1159571).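 Further: parasites synchronized at ring stage by sorbitol before testing.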 Type of series: functional, cell-based.
A short description of series [10]: growth inhibition of yeast DHODH-expressing 3D7 parasites – SYBR Green, dry powder samples, dose response (AID 1159570).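 Further: parasite growth measured after 72 hours of compound exposure.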 Type of series: functional, cell-based.
Series [11] in a line: viability loss in HEK293 cells – cell-based, plate reader, cherry-picked samples, cytotoxicity control, dose response (AID 743446). Type of series: functional.
A short description of series [12]: A549 cell cytotoxicity, dose response, cytotoxicity control, plate reader, cherry-pick, antagonist series (AID 743412). The series is classed as functional, cell-based.
Series [13] in a line: blockers of bursicon-stimulated LGR2 cAMP reporter – cell-based, HEK293, CRE-luciferase reporter, cherry pick, set 2, dose response (AID 743343).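 Further: transfected cells were stimulated with diluted bursicon conditioned medium after compound addition.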 The series is classed as functional. (In general: Reporter assays use an easily measured gene product as a stand-in for the process of interest.)
The nature of series [14]: blockade of melanocortin 4 receptor signaling – cell-based, plate reader, cherry pick, counter-screen for LGR2 antagonist project, dose response (AID 743444).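 Further: transfected HEK 293 cells stimulated with alpha-MSH peptide; potency of inhibitors of the alpha-MSH evoked signal.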 The series is classed as functional. On the technique in general: Counterscreens check selectivity or assay interference.
Series [15] has as its target Paired box protein Pax-8 (Homo sapiens, UniProt Q06710). Put plainly: PAX8 transcriptional activity inhibition in RMG-I – RMG-I cells, luciferase, cherry-pick, dose response (AID 687027).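 Further: luciferase reporter driven by Pax8 target thyroperoxidase promoter measured by SteadyGlo luminescence.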 The series is classed as functional, cell-based.
For series [16], the target named is Glyceraldehyde-3-phosphate dehydrogenase (Homo sapiens, UniProt P04406).
Glyceraldehyde-3-phosphate dehydrogenase, sequence (P04406 whole entry): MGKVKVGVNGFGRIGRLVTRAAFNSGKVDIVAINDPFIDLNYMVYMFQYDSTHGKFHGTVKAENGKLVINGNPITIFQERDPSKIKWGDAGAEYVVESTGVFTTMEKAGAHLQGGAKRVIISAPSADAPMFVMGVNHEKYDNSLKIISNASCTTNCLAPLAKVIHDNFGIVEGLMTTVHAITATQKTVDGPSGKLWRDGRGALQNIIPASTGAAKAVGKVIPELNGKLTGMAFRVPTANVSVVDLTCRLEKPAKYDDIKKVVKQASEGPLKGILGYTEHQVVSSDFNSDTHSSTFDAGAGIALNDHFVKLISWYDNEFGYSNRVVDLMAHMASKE
Series [17] concerns the target Cytochrome P450 2C9 (Homo sapiens, UniProt P11712).
Series [18] has as its target Cytochrome P450 2C19 (Homo sapiens, UniProt P33261). Kind of series: Cytochrome panel assay with activity outcomes. Panel member name: p450-cyp2c19 Compounds with AC50 equal or less than 10 uM are considered active. Type of series: functional. The following applies: read-out: AC50.
Series [19] is described as follows: luciferase reporter signal suppression in cells – H4 neuroglioma cells, luminescence, dose response (AID 1990). Type of series: functional, cell-based.
Series [20] in a line: Luminescence Cell-Based Dose Response HTS to Identify Inhibitors of 5'UTR Stem-Loop Driven Prion Protein mRNA Translation in H4 Neuroglioblastoma Cells. [Related pubchem assays: 1827 (Project Summary), 1813 (Primary HTS)]. Type of series: functional.
The nature of series [21]: alpha-synuclein stem-loop luciferase translation blockers – H4 neuroglioma cells, luminescence, confirmation (AID 1988). The series is classed as functional, cell-based.
Series [22] deals with T1, Microphthalmia-associated transcription factor (Homo sapiens, UniProt O75030).
T1 sequence (O75030 whole entry): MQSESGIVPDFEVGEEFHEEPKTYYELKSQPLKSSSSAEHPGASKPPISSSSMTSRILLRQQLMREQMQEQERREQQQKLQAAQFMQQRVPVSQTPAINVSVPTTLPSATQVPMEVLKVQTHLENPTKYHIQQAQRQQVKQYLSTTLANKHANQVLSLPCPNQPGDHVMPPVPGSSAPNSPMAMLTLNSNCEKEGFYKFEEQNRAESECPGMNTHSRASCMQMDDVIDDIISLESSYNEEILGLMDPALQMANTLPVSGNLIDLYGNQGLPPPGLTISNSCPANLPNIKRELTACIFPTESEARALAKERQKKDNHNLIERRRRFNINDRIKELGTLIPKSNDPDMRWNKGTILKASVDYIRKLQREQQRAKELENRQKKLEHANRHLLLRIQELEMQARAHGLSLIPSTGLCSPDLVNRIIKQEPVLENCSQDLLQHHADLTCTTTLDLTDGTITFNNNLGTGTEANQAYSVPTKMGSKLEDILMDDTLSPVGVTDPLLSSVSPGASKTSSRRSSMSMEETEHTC
Kind of series: reducers of TRPM1 reporter luminescence, concentration series – cell-based, SK-MEL-5, cherry-picked, set 3, MITF inhibitor project, dose response (AID 493073).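 Further: SK-MEL-5 melanoma cells with luciferase driven by the MITF target TRPM1 promoter.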 The series is classed as functional.

The subject of series [23] is INS1. Put plainly: INS-1E survival protection against cytokine death – cell-based, luminescence, retest, dose response (AID 449756).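 Further: cell death triggered by IL-1 beta plus TNF-alpha plus IFN-gamma mixture; protective hits raise ATP signal compared with cytokine alone wells.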 Type of series: functional. The following applies: Rattus norvegicus.
Series [24] can be described thus: toxicity toward HepG2 liver cells – cell-based, plate reader, cherry-pick, antagonist series, cytotoxicity control, dose response (AID 743416). Type of series: functional.
In series [25] the target is Cytochrome P450 2D6 (Homo sapiens, UniProt P10635).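 Further: CYP2D6 member of a cytochrome P450 panel assay.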
Cytochrome P450 2D6, sequence (P10635 whole entry): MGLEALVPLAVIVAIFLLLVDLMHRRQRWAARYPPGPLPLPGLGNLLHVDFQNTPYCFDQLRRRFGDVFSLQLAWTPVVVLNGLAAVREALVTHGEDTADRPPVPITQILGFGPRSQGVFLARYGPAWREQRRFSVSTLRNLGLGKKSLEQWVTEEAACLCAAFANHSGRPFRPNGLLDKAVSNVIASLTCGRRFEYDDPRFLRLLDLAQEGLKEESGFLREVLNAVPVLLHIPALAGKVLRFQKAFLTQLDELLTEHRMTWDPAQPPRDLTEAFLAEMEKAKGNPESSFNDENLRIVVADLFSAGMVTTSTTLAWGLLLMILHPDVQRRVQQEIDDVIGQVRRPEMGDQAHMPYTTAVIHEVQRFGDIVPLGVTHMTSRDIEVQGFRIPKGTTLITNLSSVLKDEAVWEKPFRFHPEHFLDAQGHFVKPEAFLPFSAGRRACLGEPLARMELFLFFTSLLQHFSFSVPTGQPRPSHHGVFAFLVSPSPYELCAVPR
Series [26] has as its target Cytochrome P450 3A4 (Homo sapiens, UniProt P08684).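 Further: CYP3A4 tested as one member of a cytochrome P450 panel screen.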
Series [27] is described as follows: reduction of Shn3 3'UTR-driven luciferase in osteoblasts – cell-based, Clone20 osteoblasts, firefly luciferase, cherry-picked, dose response (AID 624132).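 Further: firefly luciferase luminescence from reporter carrying the Shn3 3'UTR in osteoblasts.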 Type of series: functional.
Series [28] concerns the target T2, Heat shock factor protein 1 (Mus musculus, UniProt P38532).
T2 sequence (P38532 whole entry): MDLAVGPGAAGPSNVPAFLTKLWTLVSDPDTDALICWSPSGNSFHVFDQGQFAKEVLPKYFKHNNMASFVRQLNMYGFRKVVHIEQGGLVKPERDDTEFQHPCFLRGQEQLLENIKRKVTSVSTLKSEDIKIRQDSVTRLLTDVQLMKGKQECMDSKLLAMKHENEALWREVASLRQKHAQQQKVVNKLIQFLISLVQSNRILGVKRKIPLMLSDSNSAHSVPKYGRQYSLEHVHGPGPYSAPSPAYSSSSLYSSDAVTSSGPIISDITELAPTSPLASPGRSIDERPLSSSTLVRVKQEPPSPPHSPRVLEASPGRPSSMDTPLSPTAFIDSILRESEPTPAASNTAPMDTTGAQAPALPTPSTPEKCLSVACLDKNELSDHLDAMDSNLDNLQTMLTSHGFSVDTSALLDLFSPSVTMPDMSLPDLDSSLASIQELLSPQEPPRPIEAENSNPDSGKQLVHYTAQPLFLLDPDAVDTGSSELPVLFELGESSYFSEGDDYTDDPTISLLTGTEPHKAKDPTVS
Put plainly: decrease of HSF1-responsive luciferase luminescence – cell-based, NIH3T3, dose retest, confirmation (AID 2382).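 Further: NIH3T3 fibroblasts with HSF1-driven luciferase reporter stressed by proteasome inhibitor MG132; luminescence from HSF1-driven luciferase expression after 8 hours of MG132 stress.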 Type of series: functional.

For series [29], the target named is T3, Interleukin-8 (Homo sapiens, UniProt P10145).
T3 sequence (P10145 whole entry): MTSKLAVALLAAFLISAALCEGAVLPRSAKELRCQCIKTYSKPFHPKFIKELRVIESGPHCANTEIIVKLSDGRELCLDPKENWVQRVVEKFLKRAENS
Kind of series: Dose Response confirmation of uHTS small molecule hits for cystic fibrosis induced NFkb Inhibitors in a PAF-induced IL8 counterscreen. The note with it: read-out: IC50_Mean. The series is classed as functional.

Series [30] has as its target T4, Caspase-6 (Homo sapiens, UniProt P55212).
T4 sequence (P55212 whole entry): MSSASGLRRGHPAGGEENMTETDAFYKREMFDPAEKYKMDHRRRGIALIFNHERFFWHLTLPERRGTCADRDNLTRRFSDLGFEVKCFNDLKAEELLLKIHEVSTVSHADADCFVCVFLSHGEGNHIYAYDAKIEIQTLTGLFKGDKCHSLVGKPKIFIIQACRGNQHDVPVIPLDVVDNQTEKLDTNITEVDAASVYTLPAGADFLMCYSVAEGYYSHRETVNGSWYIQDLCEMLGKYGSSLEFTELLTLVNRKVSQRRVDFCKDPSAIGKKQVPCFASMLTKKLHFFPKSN
Kind of series: inhibition of CASP6 peptide cleavage – biochemical, VEID-R110 fluorescence, cherry-pick, dose response (AID 720632).

Structures are written as SMILES. Calls of active or inactive are those of the source.

Cytochrome P450 2C9, sequence (P11712 whole entry): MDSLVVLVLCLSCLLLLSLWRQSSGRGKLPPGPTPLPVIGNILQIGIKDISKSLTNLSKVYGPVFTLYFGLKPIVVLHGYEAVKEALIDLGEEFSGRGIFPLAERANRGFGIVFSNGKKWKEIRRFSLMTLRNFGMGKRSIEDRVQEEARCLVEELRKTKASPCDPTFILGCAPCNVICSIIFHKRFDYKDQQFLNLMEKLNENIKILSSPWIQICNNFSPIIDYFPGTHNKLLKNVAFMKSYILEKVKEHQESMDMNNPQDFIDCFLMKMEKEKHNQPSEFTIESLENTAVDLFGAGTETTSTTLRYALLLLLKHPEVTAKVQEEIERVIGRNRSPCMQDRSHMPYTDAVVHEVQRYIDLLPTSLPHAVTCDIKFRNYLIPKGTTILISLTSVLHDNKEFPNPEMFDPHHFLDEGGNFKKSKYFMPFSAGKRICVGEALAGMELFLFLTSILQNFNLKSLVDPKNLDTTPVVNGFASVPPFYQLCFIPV
Cytochrome P450 2C19, sequence (P33261 whole entry): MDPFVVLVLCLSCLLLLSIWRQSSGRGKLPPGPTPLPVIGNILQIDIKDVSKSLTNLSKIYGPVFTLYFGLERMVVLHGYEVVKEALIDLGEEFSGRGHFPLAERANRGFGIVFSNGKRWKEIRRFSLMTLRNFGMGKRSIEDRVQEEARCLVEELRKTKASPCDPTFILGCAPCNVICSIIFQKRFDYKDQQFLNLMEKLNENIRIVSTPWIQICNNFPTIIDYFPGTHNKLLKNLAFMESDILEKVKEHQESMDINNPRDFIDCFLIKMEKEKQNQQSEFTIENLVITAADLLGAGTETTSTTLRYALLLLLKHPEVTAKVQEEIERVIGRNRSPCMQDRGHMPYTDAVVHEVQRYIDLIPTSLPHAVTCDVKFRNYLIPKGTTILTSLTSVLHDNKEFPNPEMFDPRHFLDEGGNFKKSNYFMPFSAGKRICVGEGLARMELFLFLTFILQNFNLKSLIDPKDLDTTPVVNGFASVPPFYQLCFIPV
Cytochrome P450 3A4, sequence (P08684 whole entry): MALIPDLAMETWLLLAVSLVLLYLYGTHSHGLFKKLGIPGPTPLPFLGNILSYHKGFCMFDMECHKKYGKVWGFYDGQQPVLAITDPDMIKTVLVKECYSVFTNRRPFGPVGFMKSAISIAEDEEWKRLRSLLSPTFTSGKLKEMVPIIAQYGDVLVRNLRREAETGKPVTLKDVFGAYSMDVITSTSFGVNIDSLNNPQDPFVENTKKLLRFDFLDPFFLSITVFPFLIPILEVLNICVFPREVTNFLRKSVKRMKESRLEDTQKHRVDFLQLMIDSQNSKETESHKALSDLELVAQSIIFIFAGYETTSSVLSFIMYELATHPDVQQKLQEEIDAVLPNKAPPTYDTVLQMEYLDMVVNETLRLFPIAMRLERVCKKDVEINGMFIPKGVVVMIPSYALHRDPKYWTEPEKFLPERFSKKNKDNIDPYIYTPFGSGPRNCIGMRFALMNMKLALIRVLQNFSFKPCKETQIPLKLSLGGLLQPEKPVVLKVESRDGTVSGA
Paired box protein Pax-8, sequence (Q06710 whole entry): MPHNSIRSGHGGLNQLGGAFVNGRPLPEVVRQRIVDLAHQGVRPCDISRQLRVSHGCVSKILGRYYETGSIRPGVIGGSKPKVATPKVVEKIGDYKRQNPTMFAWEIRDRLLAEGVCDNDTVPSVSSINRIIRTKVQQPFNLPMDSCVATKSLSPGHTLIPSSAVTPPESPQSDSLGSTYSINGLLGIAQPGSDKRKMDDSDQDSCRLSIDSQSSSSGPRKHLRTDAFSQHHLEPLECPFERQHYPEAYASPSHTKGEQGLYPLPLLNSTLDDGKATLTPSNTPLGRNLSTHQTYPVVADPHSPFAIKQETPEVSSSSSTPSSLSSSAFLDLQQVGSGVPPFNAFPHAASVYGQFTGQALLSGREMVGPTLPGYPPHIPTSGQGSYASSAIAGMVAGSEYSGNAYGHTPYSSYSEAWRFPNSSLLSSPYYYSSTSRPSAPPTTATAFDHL

As for `COc1ccc2c(-c3cc4ccc(OCc5ccc(F)cc5)cc4oc3=O)cc(=O)oc2c1`, the half-maximal effective concentration (EC50) was 7.45 µM (inconclusive) in series [1], 3.13 µM (active) in [2], > 150 µM (not active) in series [3] and 8.57 µM (active) in series [4].
As for `CC1(C)CCSC(/C=C/c2ccccc2)=N1`, the EC50 in series [1] was 12.4 µM (active); in series [2] it was 7.83 µM (active); in [3], 143 µM (active); in [4], 8.6 µM (active). Further, in series [5], the CC50 was 18.5 µM (active). Also, the IC50 in series [6] is 19.2 µM (active).
As to `COc1ccc(NC(=O)N(C)C[C@@H]2Oc3cc(-c4ccc(C)cc4)ccc3S(=O)(=O)N([C@H](C)CO)C[C@@H]2C)cc1`, the AC50 was 2.25 µM (active) in series [7], 2.58 µM (active) in series [8], 3.25 µM (active) in [9] and 3.13 µM (active) in series [10].
Consider `Cn1nnnc1Sc1ncnc2scc(-c3ccc4c(c3)OCO4)c12`, for which the AC50 in series [11] was 28.8 µM (active); in [12], 14.4 µM (active); in series [13] it was 0.695 µM (active); in series [14], 1.34 µM (active); in series [15], 0.747 µM (active). For the same compound, in series [5], the 50% cytotoxic concentration (CC50) is 24 µM (active).
Consider `Cn1cc([N+](=O)[O-])c(C(=O)Nc2ccn(C34CC5CC(CC(C5)C3)C4)n2)n1`, for which, in [5], the CC50 is > 25 µM (active). Further, in [6], the IC50 is 24.3 µM (active).
Turning to `COc1cc(S(=O)(=O)Nc2cccnc2)c(OC)cc1Br`, the IC50 in series [16] is given as > 100 µM (not active).
Regarding `CCOc1ccc(NC(=O)Cn2nnc(C(=O)NCc3ccccc3OC)c2N)cc1`, the AC50 result in series [17] is “inconclusive”; in series [18] it was 5.01 µM (inconclusive).
On to `COc1ccc(C(=O)Nc2ccc(C)cn2)c(OC)c1`, for which the figures for the EC50 in [19], in [20] and in [21] were 1.15 µM (active), 28.2 µM (active) and 0.307 µM (active), respectively. The AC50 in series [22] is 3.7 µM (active).
Consider `C/C(=N\NC(=O)C(c1ccccc1)c1ccccc1)c1ccccn1`, for which the AC50 in series [23] is 1.3 µM (active); in [22], 5.96 µM (active).
In the case of `OC(c1ccccc1)(c1ccccc1)C1CCN(CCCOc2ccc(C(F)(F)F)cc2)CC1`, the AC50 is 16.6 µM (active) in series [11]; 9.23 µM (active) in [12]; 18.8 µM (active) in [13]; 11.6 µM (active) in series [14]; 10.7 µM (active) in [24].
Turning to `COc1ccccc1OCCCCCc1c(C)n[nH]c1C`, the AC50 result is “inconclusive” in [17], 11.2 µM (inconclusive) in [25] and 1.58 µM (inconclusive) in series [18].
Consider `C=CCNC(=S)N/N=C/c1ccc(-c2cc(Cl)ccc2Cl)o1`, for which the AC50 entry in series [17] is “inconclusive”; in series [18], 3.16 µM (inconclusive); in series [26], 10 µM (inconclusive).
For the compound `O=C1C2CCCN2C(c2ccc(F)cc2)N1c1ccc(Cl)cc1` (stereo unspecified), the IC50 in series [6] is > 25 µM (active).
`O=C(NC1CCCCC1)c1ccc([N+](=O)[O-])o1`: the CC50 in series [5] is 18.4 µM (active). Besides, in series [6], the IC50 is > 25 µM (active).
Turning to `COc1ccc(-c2nsc3c(N4CCCCC4C)ncnc23)cc1` (stereo unspecified), the AC50 in [11] was > 52 µM (inactive); in series [12] it was > 52 µM (inactive); in [13], 0.135 µM (active); in series [27] it was < 0.26 µM (active); in series [14], 0.134 µM (active); in series [24] it was > 52 µM (inactive). Besides, the EC50 in series [28] was < 0.16 µM (active).
Regarding `COc1ccc(Cl)cc1NC(=O)CN1C(=O)CSC1=O`, the figures for the AC50 entry in series [17], in series [25] and in [18] were “inconclusive”, 5.62 µM (inconclusive) and 39.8 µM (inconclusive), respectively.
For `CCc1cc(-c2n[nH]cc2-c2ccc(OC)cc2)c(O)cc1O`, the IC50 in [29] is 6.31 µM (active).
Take `COc1ccc(CCC(=O)Nc2ccc(S(=O)(=O)Nc3nccc(C)n3)cc2)cc1`: the AC50 in [30] is 47.1 µM (active).
Still for that read-out and setting: the same measure for `O=[N+]([O-])c1ccc(F)c2c(O)[nH]nc12`: 6.73 µM (active).
For the compound `O=C1c2ccccc2C(=O)N1Cc1cc(-c2ccccc2Cl)no1`, the AC50 result in series [17] is “inconclusive”; in [25] it was 3.16 µM (inconclusive); in series [26], 39.8 µM (inconclusive).

For the origin of these results see ChEMBL document CHEMBL1201862, “PubChem BioAssay data set” (2004).
